# Values of other authors, collected in US12708633B2, “Cannabidiol-dominant formulations, methods of manufacturing, and uses thereof” (Tilray Brands, Inc., priority 2021, dated 2026).
# Columns and labels:
# [1] = humans
# [2] = due to high intestinal permeability and low aqueous solubility
compound,measurement,setting,value
"C=C(C)[C@@H]1CCC(C)=C[C@H]1c1c(O)cc(CCCCC)cc1O [CBD, Cannabidiol]",oral bioavailability,[1],low
same,Biopharmaceutical Classification System (BCS) class,[2],Class II
